Results published in patent US9365584B2, “Thieno [2,3-B] pyridinedione activators of AMPK and therapeutic uses thereof” (Poxel, priority 2009, dated 2016).

System: AMPK
Test: AMPK enzyme activity assay (Delfia technology, AMARA peptide substrate)
Type: biochemical
Conditions: compound at 30 μM vs AMP at 200 μM
Method in brief: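 Value is the ratio of compound (30 μM) to AMP (200 μM) response, each as % of basal control. Phosphorylation of the AMARA peptide after AMPK addition was read by Delfia with an anti-phosphoserine antibody.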

SMILES	Activity: Ratio between the % of control (basal activity) of compound of formula (1) at 30 μM and the % of control (basal activity) of AMP (natural substrate) at 200 μM
CC1(c2cccc(S(C)(=O)=O)c2)C(=O)Nc2sc(Cl)c(-c3ccccc3F)c2C1=O (stereo not shown) [No 139, 2-chloro-3-(2-fluorophenyl)-5-methyl-5-(3-methyl-sulfonylphenyl)-7H-thieno[2,3-b]pyridine-4,6-dione]	A (0%<A<50%)
CC1(c2ccc(O)cc2)C(=O)Nc2sc(Cl)c(-c3ccccc3)c2C1=O (stereo not shown) [No 140, 2-chloro-5-(4-hydroxyphenyl)-5-methyl-3-phenyl-7H-thieno[2,3-b]pyridine-4,6-dione]	A (0%<A<50%)
COc1ccccc1-c1c(Cl)sc2c1C(=O)C(C)(c1ccc(S(C)(=O)=O)cc1)C(=O)N2 (stereo not shown) [No 141, 2-chloro-3-(2-methoxyphenyl)-5-methyl-5-(4-methyl-sulfonylphenyl)-7H-thieno[2,3-b]pyridine-4,6-dione]	A (0%<A<50%)
CC(C)(C)c1ccc(-c2csc3c2C(=O)C(F)(c2ccccc2)C(=O)N3)cc1 (stereo not shown) [No 142, 3-(4-tert-butylphenyl)-5-fluoro-5-phenyl-7H-thieno[2,3-b]pyridine-4,6-dione]	A (0%<A<50%)
CC(C)(C)c1ccc(-c2c(Cl)sc3c2C(=O)C(F)(c2ccccc2)C(=O)N3)cc1 (stereo not shown) [No 143, 3-(4-tert-butylphenyl)-2-chloro-5-fluoro-5-phenyl-7H-thieno[2,3-b]pyridine-4,6-dione]	A (0%<A<50%)
Cc1ccc(-c2c(Cl)sc3c2C(=O)C(C)(c2cccc(C)c2)C(=O)N3)cc1 (stereo not shown) [No 144, 2-chloro-5-methyl-5-(m-tolyl)-3-(p-tolyl)-7H-thieno[2,3-b]pyridine-4,6-dione]	A (0%<A<50%)
COc1ccccc1-c1c(Cl)sc2c1C(=O)C(C)(c1ccccc1)C(=O)N2 (stereo not shown) [No 145, 2-chloro-3-(2-methoxyphenyl)-5-methyl-5-phenyl-7H-thieno[2,3-b]pyridine-4,6-dione]	A (0%<A<50%)
COc1ccc(C2(C)C(=O)Nc3sc(Cl)c(-c4cccc(F)c4)c3C2=O)cc1 (stereo not shown) [No 146, 2-chloro-3-(3-fluorophenyl)-5-(4-methoxyphenyl)-5-methyl-7H-thieno[2,3-b]pyridine-4,6-dione]	A (0%<A<50%)
O=C1Nc2scc(-c3ccccc3O)c2C(=O)C1(F)c1ccccc1 (stereo not shown) [No 147, 5-fluoro-3-(2-hydroxyphenyl)-5-phenyl-7H-thieno[2,3-b]pyridine-4,6-dione]	C (C≧75%)
CC1(c2cccc(S(C)(=O)=O)c2)C(=O)Nc2sc(Cl)c(-c3cccc(F)c3)c2C1=O (stereo not shown) [No 148, 2-chloro-3-(3-fluorophenyl)-5-methyl-5-(3-methyl-sulfonylphenyl)-7H-thieno[2,3-b]pyridine-4,6-dione]	A (0%<A<50%)
CC1(c2ccc(S(C)(=O)=O)cc2)C(=O)Nc2sc(Cl)c(-c3cccc(F)c3)c2C1=O (stereo not shown) [No 149, 2-chloro-3-(3-fluorophenyl)-5-methyl-5-(4-methyl-sulfonylphenyl)-7H-thieno[2,3-b]pyridine-4,6-dione]	A (0%<A<50%)
COc1ccc(C2(C)C(=O)Nc3sc(Cl)c(-c4ccc(C)cc4)c3C2=O)cc1 (stereo not shown) [No 150, 2-chloro-5-(4-methoxyphenyl)-5-methyl-3-(p-tolyl)-7H-thieno[2,3-b]pyridine-4,6-dione]	A (0%<A<50%)
O=C1Nc2sc(Cl)c(-c3cc(F)ccc3OCc3ccccc3)c2C(=O)C1(F)c1ccccc1 (stereo not shown) [No 151, 3-(2-benzyloxy-5-fluoro-phenyl)-2-chloro-5-fluoro-5-phenyl-7H-thieno[2,3-b]pyridine-4,6-dione]	A (0%<A<50%)
COc1ccc(OCc2ccccc2)c(-c2csc3c2C(=O)C(F)(c2ccccc2)C(=O)N3)c1 (stereo not shown) [No 152, 3-(2-benzyloxy-5-methoxy-phenyl)-5-fluoro-5-phenyl-7H-thieno[2,3-b]pyridine-4,6-dione]	B (50%≦B<75%)
COc1ccc(-c2c(Cl)sc3c2C(=O)C(C)(c2ccccc2F)C(=O)N3)cc1 (stereo not shown) [No 153, 2-chloro-5-(2-fluorophenyl)-3-(4-methoxyphenyl)-5-methyl-7H-thieno[2,3-b]pyridine-4,6-dione]	A (0%<A<50%)
COc1ccc(C2(C)C(=O)Nc3sc(Cl)c(-c4cccc(C)c4)c3C2=O)cc1 (stereo not shown) [No 155, 2-chloro-5-(4-methoxyphenyl)-5-methyl-3-(m-tolyl)-7H-thieno[2,3-b]pyridine-4,6-dione]	A (0%<A<50%)
Cc1cccc(-c2c(Cl)sc3c2C(=O)C(C)(c2ccccc2F)C(=O)N3)c1 (stereo not shown) [No 156, 2-chloro-5-(2-fluorophenyl)-5-methyl-3-(m-tolyl)-7H-thieno[2,3-b]pyridine-4,6-dione]	A (0%<A<50%)
O=C1Nc2sc(Cl)c(-c3cccc(F)c3)c2C(=O)C1(F)c1ccccc1 (stereo not shown) [No 157, 2-chloro-5-fluoro-3-(3-fluorophenyl)-5-phenyl-7H-thieno[2,3-b]pyridine-4,6-dione]	C (C≧75%)
Cc1cccc(-c2c(Cl)sc3c2C(=O)C(C)(c2cccc(F)c2)C(=O)N3)c1 (stereo not shown) [No 158, 2-chloro-5-(3-fluorophenyl)-5-methyl-3-(m-tolyl)-7H-thieno[2,3-b]pyridine-4,6-dione]	A (0%<A<50%)
COc1cc(-c2csc3c2C(=O)C(F)(c2ccccc2)C(=O)N3)ccc1Br (stereo not shown) [No 159, 3-(4-bromo-3-methoxy-phenyl)-5-fluoro-5-phenyl-7H-thieno[2,3-b]pyridine-4,6-dione]	C (C≧75%)

The next lines start with the values.

Activity: Ratio between the % of control (basal activity) of compound of formula (1) at 30 μM and the % of control (basal activity) of AMP (natural substrate) at 200 μM	SMILES
B (50%≦B<75%)	COc1cc(-c2c(F)sc3c2C(=O)C(F)(c2ccccc2)C(=O)N3)ccc1Br (stereo not shown) [No 160, 3-(4-bromo-3-methoxy-phenyl)-2,5-difluoro-5-phenyl-7H-thieno[2,3-b]pyridine-4,6-dione]
B (50%≦B<75%)	O=C1Nc2scc(-c3cccc(Br)c3)c2C(=O)C1(F)c1ccccc1 (stereo not shown) [No 163, 3-(3-bromophenyl)-5-fluoro-5-phenyl-7H-thieno[2,3-b]pyridine-4,6-dione]
C (C≧75%)	O=C1Nc2sc(F)c(-c3cccc(Br)c3)c2C(=O)C1(F)c1ccccc1 (stereo not shown) [No 164, 3-(3-bromophenyl)-2,5-difluoro-5-phenyl-7H-thieno[2,3-b]pyridine-4,6-dione]
C (C≧75%)	COc1ccc(C2(F)C(=O)Nc3sc(F)c(-c4ccc(F)cc4)c3C2=O)cc1 (stereo not shown) [No 165, 2,5-difluoro-3-(4-fluorophenyl)-5-(4-methoxyphenyl)-7H-thieno[2,3-b]pyridine-4,6-dione]
A (0%<A<50%)	O=C1Nc2scc(-c3ccc(Br)cc3)c2C(=O)C1(F)c1cccnc1 (stereo not shown) [No 166, 3-(4-bromophenyl)-5-fluoro-5-(3-pyridyl)-7H-thieno[2,3-b]pyridine-4,6-dione]
A (0%<A<50%)	COc1ccc(C2(F)C(=O)Nc3scc(-c4ccccc4)c3C2=O)cc1 (stereo not shown) [No 167, 5-fluoro-5-(4-methoxyphenyl)-3-phenyl-7H-thieno[2,3-b]pyridine-4,6-dione]
A (0%<A<50%)	COc1ccc(C2(F)C(=O)Nc3sc(F)c(-c4ccccc4)c3C2=O)cc1 (stereo not shown) [No 168, 2,5-difluoro-5-(4-methoxyphenyl)-3-phenyl-7H-thieno[2,3-b]pyridine-4,6-dione]
C (C≧75%)	COc1ccc(C2(F)C(=O)Nc3sc(Cl)c(-c4ccc(F)cc4O)c3C2=O)cc1 (stereo not shown) [No 169, 2-chloro-5-fluoro-3-(4-fluoro-2-hydroxy-phenyl)-5-(4-methoxyphenyl)-7H-thieno[2,3-b]pyridine-4,6-dione]
A (0%<A<50%)	Cc1cccc(-c2c(Cl)sc3c2C(=O)C(C)(c2ccc(F)cc2)C(=O)N3)c1 (stereo not shown) [No 170, 2-chloro-5-(4-fluorophenyl)-5-methyl-3-(m-tolyl)-7H-thieno[2,3-b]pyridine-4,6-dione]
A (0%<A<50%)	Cc1cccc(-c2c(Cl)sc3c2C(=O)C(C)(c2cccc(C)c2)C(=O)N3)c1 (stereo not shown) [No 171, 2-chloro-5-methyl-3,5-bis(m-tolyl)-7H-thieno[2,3-b]pyridine-4,6-dione]
B (50%≦B<75%)	O=C1Nc2scc(-c3ccc(Cl)cc3)c2C(=O)C1(F)c1ccccc1 (stereo not shown) [No 172, 3-(4-chlorophenyl)-5-fluoro-5-phenyl-7H-thieno[2,3-b]pyridine-4,6-dione]
